According to US20070093520A1, “Method of treatment of diarrhea-predominant irritable bowel syndrome in a subject” (priority 2005, published 2007):

System: diarrhea-predominant IBS subjects
Test: 3007 Study: open-label 52-week safety study, adverse events and withdrawals
Conditions: Overall

SMILES: Cc1nccn1C[C@H]1CCc2c(c3cccc4c3n2CCC4)C1=O [cilansetron, (R)-(−)-4,5,6,8,9,10-hexahydro-10-[(2-methyl-1H-imidazol-1-yl)methyl]-11H-pyrido-[3,2,1-jk]-carbazol-11-one]
- TEAE: Sexual Desire Disorders: 1 (<1%) n (%)
- TEAE: Sick Sinus Syndrome: 1 (<1%) n (%)
- TEAE: Sinus Arrhythmia: 1 (<1%) n (%)
- TEAE: Sinus Congestion: 8 (1%) n (%)
- TEAE: Sinus Headache: 3 (<1%) n (%)
- TEAE: Sinusitis Acute NOS: 1 (<1%) n (%)
- TEAE: Sinusitis NOS: 37 (7%) n (%)
- TEAE: Site Specific Injuries NEC: 6 (1%) n (%)
- TEAE: Skeletal and Cardiac Muscle Analyses: 27 (5%) n (%)
- TEAE: Skin Disorder NOS: 1 (<1%) n (%)
- TEAE: Skin Fungal Infection NOS: 1 (<1%) n (%)
- TEAE: Skin Infection NOS: 1 (<1%) n (%)
- TEAE: Skin Injuries and Mechanical Dermatoses: 3 (<1%) n (%)
- TEAE: Skin Lesion NOS: 3 (<1%) n (%)
- TEAE: Skin Neoplasms Benign: 1 (<1%) n (%)
- TEAE: Skin Neoplasms Malignant and Unspecified (Excl Melanoma): 6 (1%) n (%)
- TEAE: Skin Structures and Soft Tissue Infections: 3 (<1%) n (%)
- TEAE: Skin Ulcer: 1 (<1%) n (%)
- TEAE: Skin and Subcutaneous Tissue Disorders: 39 (7%) n (%)
- TEAE: Skin and Subcutaneous Tissue Ulcerations: 1 (<1%) n (%)
- TEAE: Sleep Apnoea Syndrome: 2 (<1%) n (%)
- TEAE: Sleep Apnoeas: 2 (<1%) n (%)
- TEAE: Social Circumstances: 1 (<1%) n (%)
- TEAE: Soft Tissue Disorders NEC: 2 (<1%) n (%)
- TEAE: Soft Tissue Neoplasms Benign NEC: 3 (<1%) n (%)
- TEAE: Somnolence: 2 (<1%) n (%)
- TEAE: Speech and Language Abnormalities: 1 (<1%) n (%)
- TEAE: Spinal Cord and Nerve Root Disorders NEC: 1 (<1%) n (%)
- TEAE: Spondylitic Myelopathy: 1 (<1%) n (%)
- TEAE: Spondyloarthropathies: 1 (<1%) n (%)
- TEAE: Spondylosis: 1 (<1%) n (%)
- TEAE: Staphylococcal Infection NOS: 1 (<1%) n (%)
- TEAE: Staphylococcal Infections: 1 (<1%) n (%)
- TEAE: Status Epilepticus: 1 (<1%) n (%)
- TEAE: Stomach Discomfort: 1 (<1%) n (%)
- TEAE: Strabismus: 1 (<1%) n (%)
- TEAE: Streptococcal Infection NOS: 1 (<1%) n (%)
- TEAE: Streptococcal Infections: 8 (1%) n (%)
- TEAE: Stress Fracture: 1 (<1%) n (%)
- TEAE: Stress Incontinence: 1 (<1%) n (%)
- TEAE: Stress Symptoms: 1 (<1%) n (%)
- TEAE: Structural and Other Bile Duct Disorders: 1 (<1%) n (%)
- TEAE: Sugar Intolerance (Excl Glucose Intolerance): 1 (<1%) n (%)
- TEAE: Suicidal Ideation: 1 (<1%) n (%)
- TEAE: Suicidal and Self-Injurious Behaviour: 1 (<1%) n (%)
- TEAE: Supraventricular Arrhythmias: 4 (<1%) n (%)
- TEAE: Supraventricular Tachycardia: 1 (<1%) n (%)
- TEAE: Surgical and Medical Procedures: 2 (<1%) n (%)
- TEAE: Sweating Increased: 2 (<1%) n (%)
- TEAE: Swelling Face: 1 (<1%) n (%)
- TEAE: Tachycardia NOS: 1 (<1%) n (%)
- TEAE: Temporomandibular Joint Disorder NOS: 1 (<1%) n (%)
- TEAE: Tenderness NOS: 1 (<1%) n (%)
- TEAE: Tendon Disorders: 3 (<1%) n (%)
- TEAE: Tendonitis: 2 (<1%) n (%)
- TEAE: Tension Headaches: 1 (<1%) n (%)
- TEAE: Thoracic Cage Fractures and Dislocations: 1 (<1%) n (%)
- TEAE: Thrombocytopenia: 1 (<1%) n (%)
- TEAE: Thrombocytopenias: 1 (<1%) n (%)
- TEAE: Thrombophlebitis Superficial: 1 (<1%) n (%)
- TEAE: Thyroid Disorders NEC: 1 (<1%) n (%)
- TEAE: Thyroid Hypofunction Disorders: 2 (<1%) n (%)
- TEAE: Thyroid Neoplasms: 1 (<1%) n (%)
- TEAE: Thyroid Nodule: 1 (<1%) n (%)
- TEAE: Tinea Cruris: 1 (<1%) n (%)
- TEAE: Tinea Infections: 2 (<1%) n (%)
- TEAE: Tinea Pedis: 1 (<1%) n (%)
- TEAE: Tinnitus: 1 (<1%) n (%)
- TEAE: Tissue Enzyme Analyses NEC: 3 (<1%) n (%)
- TEAE: Tongue Coated: 1 (<1%) n (%)
- TEAE: Tongue Signs and Symptoms: 1 (<1%) n (%)
- TEAE: Tooth Abscess: 7 (1%) n (%)
- TEAE: Tooth Disorder NOS: 1 (<1%) n (%)
- TEAE: Tooth Impacted: 1 (<1%) n (%)
- TEAE: Tooth Infection: 2 (<1%) n (%)
- TEAE: Toothache: 3 (<1%) n (%)
- TEAE: Total Fluid Volume Decreased: 2 (<1%) n (%)
- TEAE: Total Number of Subjects with at Least One TEAE: 437 (82%) n (%)
- TEAE: Transient Global Amnesia: 1 (<1%) n (%)
- TEAE: Tremor: 2 (<1%) n (%)
- TEAE: Tremor (Excl Congenital): 2 (<1%) n (%)
- TEAE: Trigger Finger: 1 (<1%) n (%)
- TEAE: Triglyceride Analyses: 10 (2%) n (%)
- TEAE: Tympanic Membrane Disorder NOS: 1 (<1%) n (%)
- TEAE: Tympanic Membrane Disorders (Excl Infections): 1 (<1%) n (%)
- TEAE: Umbilical Hernia NOS: 1 (<1%) n (%)
- TEAE: Umbilical Hernias: 1 (<1%) n (%)
- TEAE: Upper Limb Fractures and Dislocations: 1 (<1%) n (%)
- TEAE: Upper Respiratory Tract Infection NOS: 26 (5%) n (%)
- TEAE: Upper Respiratory Tract Infections - Pathogen Class Unspecified: 61 (11%) n (%)
- TEAE: Upper Respiratory Tract Signs and Symptoms: 7 (1%) n (%)
- TEAE: Urinalysis NEC: 16 (3%) n (%)
- TEAE: Urinary Abnormalities: 6 (1%) n (%)
- TEAE: Urinary Frequency: 3 (<1%) n (%)
- TEAE: Urinary Incontinence: 1 (<1%) n (%)
- TEAE: Urinary Retention: 1 (<1%) n (%)
- TEAE: Urinary Tract Infection NOS: 26 (5%) n (%)
- TEAE: Urinary Tract Infections: 29 (5%) n (%)
- TEAE: Urinary Tract Lithiasis (Excl Renal): 1 (<1%) n (%)
- TEAE: Urinary Tract Signs and Symptoms NEC: 1 (<1%) n (%)
- TEAE: Urine Abnormal NOS: 1 (<1%) n (%)
- TEAE: Urine Analysis Abnormal NOS: 1 (<1%) n (%)
- TEAE: Urine Bilirubin Increased: 1 (<1%) n (%)
- TEAE: Urine Ketone Body Present: 5 (<1%) n (%)
- TEAE: Urine Leukocyte Esterase Positive: 5 (<1%) n (%)
- TEAE: Urobilin Urine Present: 1 (<1%) n (%)
- TEAE: Urticaria NOS: 3 (<1%) n (%)
- TEAE: Urticarias: 3 (<1%) n (%)
- TEAE: Uterine Disorders NEC*: 2 (<1%) n (%)
- TEAE: Uterine Fibroids*: 1 (<1%) n (%)
- TEAE: Uterine Neoplasms Benign*: 1 (<1%) n (%)
- TEAE: Uterine Neoplasms*: 2 (<1%) n (%)
- TEAE: Uterine Polyp NOS*: 2 (<1%) n (%)
- TEAE: Vaginal Cyst*: 1 (<1%) n (%)
- TEAE: Vaginal Lesion*: 1 (<1%) n (%)
- TEAE: Varicose Vein Ruptured: 2 (<1%) n (%)
- TEAE: Varicose Veins Non-Site Specific: 2 (<1%) n (%)
- TEAE: Vascular Auscultatory Investigations: 2 (<1%) n (%)
- TEAE: Vascular Disorders: 21 (4%) n (%)
- TEAE: Vascular Hypertensive Disorders NEC: 15 (3%) n (%)
- TEAE: Vascular Hypotensive Disorders: 1 (<1%) n (%)
- TEAE: Vascular Tests NEC (Incl Blood Pressure): 5 (<1%) n (%)
- TEAE: Vasovagal Attack: 1 (<1%) n (%)
- TEAE: Ventricular Arrhythmias and Cardiac Arrest: 2 (<1%) n (%)
- TEAE: Ventricular Extrasystoles: 1 (<1%) n (%)
- TEAE: Vertigo: 2 (<1%) n (%)
- TEAE: Viral Infection NOS: 4 (<1%) n (%)
- TEAE: Viral Infections NEC: 15 (3%) n (%)
- TEAE: Visual Acuity Reduced: 1 (<1%) n (%)
- TEAE: Vitreous Disorder NOS: 1 (<1%) n (%)
- TEAE: Vomiting NOS: 18 (3%) n (%)
- TEAE: Vulvovaginal Cysts and Neoplasms*: 1 (<1%) n (%)
- TEAE: Vulvovaginal Dryness*: 2 (<1%) n (%)
- TEAE: Vulvovaginal Signs and Symptoms*: 3 (<1%) n (%)
- TEAE: Weight Decreased: 2 (<1%) n (%)
- TEAE: Weight Increased: 6 (1%) n (%)
- TEAE: Wheezing: 1 (<1%) n (%)
- TEAE: White Blood Cell Analyses: 5 (<1%) n (%)
- TEAE: White Blood Cell Count Decreased: 1 (<1%) n (%)
- TEAE: White Blood Cells Urine Positive: 1 (<1%) n (%)
- TEAE leading to permanent discontinuation: Abdominal Distension (N=536): 4 (<1%) n (%)
- TEAE leading to permanent discontinuation: Abdominal Pain Aggravated (N=536): 1 (<1%) n (%)
- TEAE leading to permanent discontinuation: Abdominal Pain Lower (N=536): 2 (<1%) n (%)
- TEAE leading to permanent discontinuation: Abdominal Pain NOS (N=536): 11 (2%) n (%)
- TEAE leading to permanent discontinuation: Abdominal Pain Upper (N=536): 4 (<1%) n (%)
- TEAE leading to permanent discontinuation: Alanine Aminotransferase Increased (N=536): 1 (<1%) n (%)
- TEAE leading to permanent discontinuation: Angina Pectoris (N=536): 1 (<1%) n (%)
- TEAE leading to permanent discontinuation: Appendicitis (N=536): 1 (<1%) n (%)
- TEAE leading to permanent discontinuation: Asthma Aggravated (N=536): 1 (<1%) n (%)
- TEAE leading to permanent discontinuation: Asthma NOS (N=536): 1 (<1%) n (%)
- TEAE leading to permanent discontinuation: Back Pain (N=536): 4 (<1%) n (%)
- TEAE leading to permanent discontinuation: Bladder Prolapse (N=536): 1 (<1%) n (%)
- TEAE leading to permanent discontinuation: Blood Bilirubin Increased (N=536): 1 (<1%) n (%)
- TEAE leading to permanent discontinuation: Blood Pressure Increased (N=536): 1 (<1%) n (%)
- TEAE leading to permanent discontinuation: Blood Urine Present (N=536): 1 (<1%) n (%)
- TEAE leading to permanent discontinuation: Bone Neoplasm Malignant (N=536): 1 (<1%) n (%)
- TEAE leading to permanent discontinuation: Cardiac Disorders (N=536): 1 (<1%) n (%)
- TEAE leading to permanent discontinuation: Chest Discomfort (N=536): 1 (<1%) n (%)
- TEAE leading to permanent discontinuation: Chest Pain (N=536): 1 (<1%) n (%)
- TEAE leading to permanent discontinuation: Chest Wall Pain (N=536): 1 (<1%) n (%)
- TEAE leading to permanent discontinuation: Colitis Ischaemic (N=536): 1 (<1%) n (%)
- TEAE leading to permanent discontinuation: Constipation (N=536): 28 (5%) n (%)
- TEAE leading to permanent discontinuation: Cough (N=536): 1 (<1%) n (%)
- TEAE leading to permanent discontinuation: Dehydration (N=536): 1 (<1%) n (%)
- TEAE leading to permanent discontinuation: Depression (N=536): 1 (<1%) n (%)
- TEAE leading to permanent discontinuation: Diarrhoea Aggravated (N=536): 2 (<1%) n (%)
- TEAE leading to permanent discontinuation: Diarrhoea Haemorrhagic (N=536): 1 (<1%) n (%)
- TEAE leading to permanent discontinuation: Diarrhoea NOS (N=536): 6 (1%) n (%)
- TEAE leading to permanent discontinuation: Dizziness (N=536): 2 (<1%) n (%)
